Two compounds from patent US20150265669A1, “METHODS AND COMPOSITIONS FOR INHIBITING CANCER CELL GROWTH” (priority 2014, published 2015) can be followed below.

Each structure is given as a SMILES string. Converted amounts (≈) assume the structure as drawn.

One assay relates to A549 cells. Put plainly: MTT cytotoxicity assay on A549 cells. The settings on record: Homo sapiens, after 72 hours, read-out: IC50 concentrations. It is filed as cell-based. How it is done: The cytoxicity properties of the extract were determined by using MTT assay. MTT dye is a water-soluble yellow dye that is decreased in viable cells to MTT-formazan (3-[4,5-dimethylthiazol-2-yl]-3,5-diphenylformazan) that is an insoluble purple colored product, by the succinate dehydrogenase mitochondrial enzyme. The cells were seeded in 96-well Microplates at a density of 2×10^5 cells/ml. After 24 hours incubation, the cells were treated with various concentrations of Morinda leaf, or Clinacanthus spp. Leaves and root extract ([…]) for 24, 48 and 72 h. After 72 hours of incubation, 20 μL of MTT solution (5 mg/ml in PBS) was added in each well and the plates incubated for 4 hours. Then, after removing the media the formazan crystals were dissolved with 100 μL DMSO. Finally the absorbance was determined at 570 and 630 nm in a microplate reader (ECAN, Sunrise™, Männedorf, Switzerland). Cell viability was calculated as the percentage of absorbent compared to control. The 50% inhibitory concentration (IC50) value, defined as the amount of Morinda citrifolia leaf, or Clinacanthus spp. Leaves and root extract that inhibits 50% of cell growth, was calculated from the concentration-response curves. All experiments were carried out in triplicate. Three independent experiments performed in triplicate were used for these calculations. […]
For orientation: Tetrazolium assays rely on reduction of a dye to a coloured formazan, in cell work by metabolically active cells.

In assay [1] the test system is A549 cells (lung cancer). Put plainly: Morphological changes under normal phase contrast inverted microscope. It is filed as cell-based, human. The settings on record: 400x. How it is done:
Wehi-3B (blood cancer) or A549 (lung cancer) cells at concentration of 1×10^6 cells/ml were cultured in RPMI 1640 (ATCC, USA) medium supplemented with 10% fetal bovin serum and were seeded into […] culture flask. […] The morphological changes of the cells were observed under normal inverted microscope. Untreated cells were used as negative control. Some morphological appearances such as plasma membrane blebbing, rounding up the cells, cell detachment, cell shrinkage and formation of vacuole in the cell were observed.
Similarly Human lung fibroblast (MRC5), human lung adenocarcinoma (A549) cell lines, Essential Modified Eagle's Medium (EMEM) and Kaighn's Modification of Ham's F-12 (F-12K) medium were obtained from American Type Culture Collection (ATCC). MRC5 and A549 cells were cultured in EMEM and F-12K medium, respectively. Both media supplemented with 10% fetal bovine serum (FBS) and 1% of 100 μg/mL penicillin and streptomycin. Cells were grown in a humidified incubator at 37° C. with 5% CO2.

Assay [2] concerns A549 cells (lung cancer). Put plainly: AO/PI double staining fluorescence microscopy. It is filed as cell-based, human. The settings on record: 200x. How it is done:
AO/PI double staining was carried out to visualize any morphological changes in the cells upon treatment and also to semi-quantitated viable, apoptotic and necrotic cells, as shown in FIG. 3. […] After 24 hours treatment, blebbing of the cell membrane and dense green nucleus, which indicated nuclear chromatin condensation were noticeable (FIGS. 3(b) and 3(e)). Both early apoptosis features (blebbing and chromatin condensation) and late phases of apoptosis, which specify presence of intense reddish-orange colour due to acridine orange binding to denatured DNA, were observed more apparent at 48 hours of treatment (FIGS. 3(c) and 3(f)) and prominent at 72 hours (FIGS. 3(d) and 3(g)).

A further assay relates to A549 (lung cancer). Put plainly: Colourimetric assay of caspase 3, 8 and 9 in A549. It is filed as cell-based, human. The settings on record: A549, treated vs untreated cells, 24-72 hours. How it is done:
The colorimetric assay of caspase 3 was performed using fluorometric and colorimetric assay kit (biotium kit). Wehi-3B (blood cancer) or A549 (lung cancer) cells at concentration of 1×10^6 cells/ml were cultured in RPMI 1640 (ATCC, USA) medium supplemented with 10% fetal bovin serum and were seeded into […] culture flask. […] Untreated cells acted as control. The cells were lysed with cold lysis buffer and incubated for 10 minutes on ice. Then, cell lysate was spun down at 10000 rpm for 5 minutes. The supernatant was transferred to new wells and 50 μl assay buffer was added to each samples. Then, 5 μl of enzyme substrate (caspase-3 and 8 substrate) was added to each sample and incubated at 37° c. for 30-60 minutes in a dark place. […]. The samples were read at 495 nm in a microplate reader. Finally, the results were shown as optical density (495 nm, mean SD).

Assay [3] has as its system A549 cells (lung cancer). Put plainly: Flow cytometric cell cycle phase distribution. It is filed as cell-based, human. As to conditions: A549, IC50 concentration; for cell cycle arrest: 12-72 hours. Here is the method: The Wehi-3B (blood cancer) or A549 (lung cancer) cells (2×10^5 cells/mL) were treated with IC50 concentration of Morinda spp. leaves, or Clinacanthus spp. leaves with or without Zingiber extract and compared with erlotinib. After 12, 24, 48, and 72 hours of incubation, the cells were trypsinized, washed, fixed in 70% ethanol, stained with 1 mg/mL PI and analysed by flow cytometry (BD FACS Canto II, USA).
For flow cytometry analysis fixation of cell population must be performed to keep the integrity and the cell pellets were fixed by adding of 500 μl of 70% chilled ethanol and kept at −20° c. for 5-7 days. Then, the cells were centrifuged at 1000 rpm for 10 minutes and the ethanol was removed. The cells were washed with washing solution containing PBS, EDTA, bovine serum albumin and sodium azide twice, and the pellet cells were resuspended to staining buffer containing 1 ml PBS and 3 μl PI (10 mg/ml) and 10 μl RNase A (50 mg/ml) for 30 minutes on ice dark place. RNase was added in order to permit PI to bind exactly to DNA. The DNA content of cells was analysed with a BD flow cytometer, and the data analysis was performed by using summit V4.3 software.

For assay [4], the system named is A549 cells injected subcutaneously. Put plainly: In vivo tumor xenograft model. Details: species or system mice. The settings on record: erlotinib 50 mg/kg, daily oral gavage 21 days. How it is done: Male BALB/C mice (6 weeks old, weighing 19-20 g) were purchased from Faculty of Veterinary Medicine, University Putra Malaysia. Mice were housed in laminar air-flow cabinets under pathogen-free conditions with a 12-h light/12-h dark schedule and fed with autoclaved standard chow and water ad libitum. A549 cells (2×10^7) resuspended in 100 μL PBS were injected subcutaneously into the backs of mice. When tumor size reached approximately 100 mm^3, after 14 days of implantation, mice were randomly assigned to the following experimental groups and administered daily by oral gavage for 21 days: (a) saline; (b) erlotinib (50 mg/kg); (c) 150 mg/kg and (d) 300 mg/kg of Morinda spp. leaves, Clinacanthus spp. leaves. Mice were sacrificed via intraperitoneal injection of ketamine HCl (100 mg/kg) and xylazine (10 mg/kg). Tumor was collected. Some were kept in liquid nitrogen for gene expression, while others were fixed in 10% formalin and embedded in paraffin for hematoxylin and eosin (H&E) and immunohistochemical (IHC) examination. IHC kits (ChemMate™ DAKO EnVision™ Detection Kit, Peroxidase/DAB, Rabbit/Mouse) were purchased from Dako, Denmark. […]
Data was expressed as mean±standard deviation (mean±SD) of at least three independent experiments; significant differences (p<0.05) using one-way analysis of variance (ANOVA) and Duncan test using statistical analysis IBM SPSS Statistics 21 software.

The subject of another assay is tumor tissues. Put plainly: Mouse apoptosis RT-PCR-Array on tumor tissues. It is filed as in vivo, mice. How it is done: Male BALB/C mice (6 weeks old, weighing 19-20 g) were purchased from Faculty of Veterinary Medicine, University Putra Malaysia. Mice were housed in laminar air-flow cabinets under pathogen-free conditions with a 12-h light/12-h dark schedule and fed with autoclaved standard chow and water ad libitum. A549 cells (2×10^7) resuspended in 100 μL PBS were injected subcutaneously into the backs of mice. When tumor size reached approximately 100 mm^3, after 14 days of implantation, mice were randomly assigned to the following experimental groups and administered daily by oral gavage for 21 days: (a) saline; (b) erlotinib (50 mg/kg); (c) 150 mg/kg and (d) 300 mg/kg of Morinda spp. leaves, Clinacanthus spp. leaves. Mice were sacrificed via intraperitoneal injection of ketamine HCl (100 mg/kg) and xylazine (10 mg/kg). Tumor was collected. Some were kept in liquid nitrogen for gene expression, while others were fixed in 10% formalin and embedded in paraffin for hematoxylin and eosin (H&E) and immunohistochemical (IHC) examination. IHC kits (ChemMate™ DAKO EnVision™ Detection Kit, Peroxidase/DAB, Rabbit/Mouse) were purchased from Dako, Denmark. The primary antibody was anti-EGFR antibody ab15669 (Abeam; Cambridge, United Kingdom). This protocol was approved by the Animal Care and Use Committee of University Putra Malaysia (UPM/IACUC/AUP-R016/2013).
RNA was isolated using Trizol (Invitrogen, Carlsbad, Calif.). Custom RT^2 Profiler PCR Array (CAPM11988), RT^2 SYBR Green qPCR Mastermix, RT^2 First Strand Kit and RNase-Free DNase Set were purchased from SuperArray Bioscience Corporation (Frederick, Md.). Quantitative RT-PCR array for differentially expressed genes of interest was performed utilizing RT^2 Profiler PCR Array Data Analysis version 3.5 (SABiosciences; Fredrick, Md., USA), which normalized to Hsp90ab1 (NM_008302) and Gapdh (NM_008084). RT-PCR data is represented as the average relative mRNA gene expression of each experimental group (n=3).

In assay [5] the test system is Spleen tissue of leukaemic BALB/c mice. Put plainly: TUNEL assay of spleen tissue. The settings on record: Morinda at low and high doses. It is filed as in vivo.
[6] abbreviates: Erlotinib 50 mg/kg, vs untreated.

With `C#Cc1cccc(Nc2ncnc3cc(OCCOC)c(OCCOC)cc23)c1` [erlotinib], the IC50 in the assay on A549 cells came out at 2.83 µg/mL (≈ 7.19 µM). Besides, the “morphological changes of A549 cells” value with A549 cells (lung cancer) [1] (after 24 h) was “most of the cells exhibit normal morphology while some cells show cell shrinkage”. In the assay with A549 cells (lung cancer) [1] (after 48 h), the “morphological changes of A549 cells” value was “clear apoptogenic morphology such as blebbing and cell shrinkage observed”. For the same compound, in the assay on A549 cells (lung cancer) [1] (after 72 h), the “morphological changes of A549 cells” value was “most of the cells were detached with obvious cell shrinkage, and blebbing of the cell membrane”. Further, in the assay on A549 cells (lung cancer) [2] (after 24 h), the AO/PI double-stained morphology entry was “cells exhibit blebbing of the cell membrane and bright green nucleus showing condensation of chromatin”. Further, in the assay with A549 cells (lung cancer) [2] (after 48 h), the AO/PI double-stained morphology result is “late apoptosis features were seen”. The AO/PI double-stained morphology entry in the assay with A549 cells (lung cancer) [2] (after 72 hours) was “more late apoptosis”. Further, in the assay on A549 (lung cancer), the “activity of caspase 9” value is recorded as “remained unchanged”, the “activity of caspase-3” value is given as “significantly (P<0.05) increased” and the “activity of caspase-8” value was “significantly (P<0.05) increased”. Besides, in the assay on A549 cells (lung cancer) [3], the “S and G2/M phase cells” value is listed as “concomitant decrease”; the cell cycle arrest entry was “induced G0/G1 phase cell cycle arrested”. For the same compound, in the assay on A549 cells (lung cancer) [3] (listed as erlotnib), the cell cycle arrest result is listed as “induced G0/G1 arrest”. Moreover, the tumor size in assay [4] was 36.26±37.00 mm^3. Also, in the assay with tumor tissues (setting [6]), the “Fold Change Bcl2” value is −3.57 fold, the “Fold Change Birc5” value is reported as −2.40 fold, the “Fold Change Jak2” value is reported as −1.26 fold and the “Fold Change Stat3” value was 1.06 fold. Besides, in the assay with tumor tissues (setting [6]), the “Fold Change Stat5a” value is recorded as 1.42 fold and the “Fold Change Trp53” value was −1.10 fold. The “survivin and Bcl-2 expression” value with tumor tissues (erlotinib positive control) is listed as “down-regulation”.

For `CC1=C(/C=C/C(C)=C/C=C/C(C)=C/C(=O)O)C(C)(C)CCC1` [ATRA], the “apoptosis in spleen tissue (TUNEL)” value in assay [5] is listed as “significant (P<0.05) apoptosis”.
